Results taken from patent US20100285000A1, “USE OF VEGFR-2 INHIBITORS FOR TREATING METASTATIC CANCER” (BRISTOL-MYERS SQUIBB COMPANY, priority 2007, published 2010).

Tests used:
[1] = system: MDA-MB-231 breast cancer cells; assay: MDA-MB-231 orthotopic model of tumor metastasis (lung metastases after resection of the primary tumor); format: in vivo; conditions: human MDA-MB-231 cells in mouse mammary fat pad, tumors resected day 24, treatment from day 28, IP twice weekly; Comp-I 30 mg/kg, bevacizumab 5 mg/kg; control cohort 84%
Description: MDA-MB-231 breast tumor cells implanted in mammary fat pad of mice and resultant tumors resected day 24. Drug treatment was initiated on day 28 and mice were sacrificed at 118 days and local regrowth and lung metastases evaluated.
Human MDA-MB-231 breast cancer cells were implanted in the mouse mammary fat pads at day 0 (1×10^6 MDA-MB-231 breast cancer cells). The resultant tumors were resected at day 24 and treatment initiated 4 days later (Mean tumor volume at resection=400 mm^3). Treatment groups were as follows: Control: PBS, Comp-I: 30 mg/kg, and bevacizumab 5 mg/kg (100 μL IP injections twice weekly). When mice were sacrificed, the extent of local regrowth and numbers of lung metastases were evaluated.

[2] = Bhuyan et al. Cancer Res. 42, 3532-3537 (1982); cited from earlier work

Row | Compound | mice showing lung metastases (incidence of metastases) [1] | potency in vitro relative to commonly used anti-cancer drugs (doxorubicin, methotrexate, vincristine) [2]
1 | bevacizumab | 74% | –
2 | COc1c(O)c2c(c3cc(C(=O)N4CCc5c4c(O)c(OC)c4[nH]c(C(=O)N6CC7CC78C6=CC(=O)c6[nH]cc(C)c68)cc54)[nH]c13)CCN2C(N)=O (centres unmarked) [CC-1065] | – | about 1000 fold
